Biological target: Nischarin / imidazoline I1 receptor (Rattus norvegicus)
Assay: Displacement of [125I]p-iodoclonidine from imidazoline receptor I-1 in rat pheochromocytoma cells

Row | Compound | Ki [µM]
1 | C[C@H](CC1=NCCN1)c1ccccc1 | 0.589
2 | C[C@@H](CC1=NCCN1)c1ccccc1 | 7.24
3 | CC(CC1=NCCN1)c1ccccc1 (stereo not given) | 6.03
4 | c1ccc(CCC2=NCCN2)cc1 [2-Phenethyl-4,5-dihydro-1H-imidazole] | 3.71
5 | CC(Oc1ccccc1)C1=NCCN1 (stereo not given) | 0.309
